According to patent US10154994B2, “Ophthalmic formulations of tyrosine kinase inhibitors, methods of use thereof, and preparation methods thereof” (Allgenesis Biotherapeutics Inc., priority 2015, dated 2018):
Where a name gives a salt, the structure may show the parent alone. Read-outs that look alike come from different tables or passages of the source.

Tested on: cornea suture-induced neovascularization
Settings: for CNV Branching / CNV Length / CNV Area (~%): 6 eyes; for CNV Area (~%): percentage estimate of involved corneal circumference
Experimental: For this study, New Zealand white rabbits at approximately 5 months old with no visible signs of ocular defects were selected. Suture placement was performed on Day 1. Prior to surgery, the right eye of each animal was dilated using a mydriatic agent (1% tropicamide), and the conjunctiva was flushed with approximately 10 mL benzalkonium chloride (Zephiran™) diluted in sterile water, U.S.P. to 1:10,000 (v/v). Saline (0.9%) was also used to flush the eye along with benzalkonium chloride. Animals were anesthetized with isoflurane/oxygen during the procedure. Hydration of the eyes was maintained by irrigation with saline solution, as needed. The procedure was conducted under a dissecting or surgical microscope. The cornea of the right eye was exposed using an eyelid speculum. The central corneal area was appropriately marked as considered necessary by the surgeon. […] The outer point of suture placement was chosen near the limbus (1-2 mm), and the inner suture point was chosen near the corneal center, equidistant from the limbus, to obtain standardized angiogenic responses. The left eye remained untreated.
The study design is shown below in Table 7:
Dose formulations were administered by subconjunctival injection to the sutured right eye of each animal of the Avastin control group (5 mg) on Days 1 and 7, at a dose volume of 200 μL/dose immediately post suture placement. Dose formulations were given three times daily (TID) for the group administered with suspension vehicle, 0.3% Axitinib, 0.3% Nintedanib Ethanesulfonate, or 0.3% Sorafenib Tosylate for a duration of 14 days. […] The dosing volume was one 35 μL drop per dose. After the dose was administered, the upper and lower eyelids were gently held together to prevent the loss of material and to distribute the dose across the eye.
Ocular imaging and neovascularization assessments were performed once pre-treatment, and also once on Days 7 and 14. A pre-anesthetic cocktail of Ketamine (15 mg/kg) and Dexmedetomidine (0.25 mg/kg) was administered subcutaneously, and the animals were maintained with isoflurane/oxygen mix prior to and during the procedure. Still images of the cornea were taken from both eyes (from the center of each eye, nasally and temporally). Images were evaluated qualitatively and quantitatively to assess the degree of corneal neovascularization (CNV), and to determine the area affected by CNV. The length of the vessel incursion was measured from the limbus to the distal end of the encroaching CNV using a digital micrometer (in millimeters) for each selected image. Qualitative assessments included the percentage estimate of involved corneal circumference (using multiple images as necessary), and vessel branching.

[1] = topical TID for 14 days, study conclusion

| Compound | corneal neovascularization observed (Day 7) | CNV Branching (Day 7) | CNV Length (Day 7) | CNV Area (~%) (Day 7) | tolerability in the CNV study (topical TID for 14 days) | efficacy in preventing or slowing CNV progression [1] | efficacy compared with Avastin (Day 7) | corneal neovascularization observed (Day 14) | CNV Branching (Day 14) | efficacy compared with Avastin (vessel length, surface area and vessel branching; words) (Day 15) | tolerability in the CNV study (rabbit, in vivo) | efficacy versus Avastin in preventing or slowing CNV progression (study conclusion) | corneal neovascularization observed (Day 7 and Day 14) | CNV Length (Day 14) | CNV Area (~%) (Day 14) | CNV Branching (Pre) | CNV Length (Pre) | CNV Area (~%) (Pre) |
| --- | --- | --- | --- | --- | --- | --- | --- | --- | --- | --- | --- | --- | --- | --- | --- | --- | --- | --- |
| CNC(=O)c1ccccc1Sc1ccc2c(/C=C/c3ccccn3)n[nH]c2c1 [Axitinib] | not observed | very slight to moderate | approximately 0.5 mm | ~20% | well-tolerated | efficacious in preventing or slowing CNV progression | – | – | – | – | – | – | – | – | – | – | – | – |
| COC(=O)c1ccc2c(c1)NC(=O)/C2=C(\Nc1ccc(N(C)C(=O)CN2CCN(C)CC2)cc1)c1ccccc1 [Nintedanib Ethanesulfonate] | not observed | very slight to moderate | approximately 0.5 mm | ~20% | – | efficacious in preventing or slowing CNV progression | comparable to one given Avastin | sparse | no branching | slightly more efficacious | well-tolerated | more efficacious, or at least comparable to Avastin | – | – | – | – | – | – |
| CNC(=O)c1cc(Oc2ccc(NC(=O)Nc3ccc(Cl)c(C(F)(F)F)c3)cc2)ccn1 [Sorafenib Tosylate] | – | – | – | – | – | – | – | – | – | – | – | – | Slight corneal neovascularization | – | – | – | – | – |
| Avastin: active control, 5 mg/eye by subconjunctival injection | – | 0 | 0 mm | 0% | – | – | – | minimal CNV | 1 | – | – | – | – | 0.45 mm | 13% | 0 | 0 mm | 0% |
